According to patent publication US7087634B2, “Cyclic AMP-specific phosphodiesterase inhibitors” (ICOS Corporation, priority 1999, dated 2006):

Key:
Type in all cases: biochemical
PDE5 = molecular target: T1, PDE5 (Homo sapiens, UniProt O76074); assay: Inhibition of PDE5
T1 construct: made in house; host or cells: Saccharomyces cerevisiae BJ2-54
Description: Recombinant production of human PDE1B, PDE2, PDE4A, PDE4B, PDE4C, PDE4D, PDE5, and PDE7 was carried out similarly to that described in Example 7 of U.S. Pat. No. 5,702,936, incorporated herein by reference, except that the yeast transformation vector employed, which is derived from the basic ADH2 plasmid described in Price et al., Methods in Enzymology, 185, pp. 308–318 (1990), incorporated yeast ADH2 promoter and terminator sequences and the Saccharomyces cerevisiae host was the protease-deficient strain BJ2–54 deposited on Aug. 31, 1998 with the American Type Culture Collection, Manassas, Va., under accession number ATCC 74465. Transformed host cells were grown in 2×SC-leu medium, pH 6.2, with trace metals, and vitamins. After 24 hours, YEP medium-containing glycerol was added to a final concentration of 2×YET/3% glycerol. […]
Phosphodiesterase activity of the preparations was determined as follows. […] The [32P]5′-AMP or [32P]5′-GMP then was quantitatively converted to free [32P]phosphate and unlabeled adenosine or guanosine by the action of snake venom 5′-nucleotidase. […] PDE enzyme was present in quantities that yield <30% total hydrolysis of substrate (linear assay conditions). […] After centrifugation (750×g for 3 minutes) to sediment the charcoal, a sample of the supernatant was taken for radioactivity determination in a scintillation counter and the PDE activity was calculated. […]

PDE3A = molecular target: T2, PDE3A (Homo sapiens, UniProt Q14432); assay: Inhibition of PDE3A
T2 construct: Plasmid pBB-PDE3A contained the complete open reading frame of PDE3A; made in house; host or cells: Sf9 (baculovirus)
T2 sequence (Q14432 whole entry): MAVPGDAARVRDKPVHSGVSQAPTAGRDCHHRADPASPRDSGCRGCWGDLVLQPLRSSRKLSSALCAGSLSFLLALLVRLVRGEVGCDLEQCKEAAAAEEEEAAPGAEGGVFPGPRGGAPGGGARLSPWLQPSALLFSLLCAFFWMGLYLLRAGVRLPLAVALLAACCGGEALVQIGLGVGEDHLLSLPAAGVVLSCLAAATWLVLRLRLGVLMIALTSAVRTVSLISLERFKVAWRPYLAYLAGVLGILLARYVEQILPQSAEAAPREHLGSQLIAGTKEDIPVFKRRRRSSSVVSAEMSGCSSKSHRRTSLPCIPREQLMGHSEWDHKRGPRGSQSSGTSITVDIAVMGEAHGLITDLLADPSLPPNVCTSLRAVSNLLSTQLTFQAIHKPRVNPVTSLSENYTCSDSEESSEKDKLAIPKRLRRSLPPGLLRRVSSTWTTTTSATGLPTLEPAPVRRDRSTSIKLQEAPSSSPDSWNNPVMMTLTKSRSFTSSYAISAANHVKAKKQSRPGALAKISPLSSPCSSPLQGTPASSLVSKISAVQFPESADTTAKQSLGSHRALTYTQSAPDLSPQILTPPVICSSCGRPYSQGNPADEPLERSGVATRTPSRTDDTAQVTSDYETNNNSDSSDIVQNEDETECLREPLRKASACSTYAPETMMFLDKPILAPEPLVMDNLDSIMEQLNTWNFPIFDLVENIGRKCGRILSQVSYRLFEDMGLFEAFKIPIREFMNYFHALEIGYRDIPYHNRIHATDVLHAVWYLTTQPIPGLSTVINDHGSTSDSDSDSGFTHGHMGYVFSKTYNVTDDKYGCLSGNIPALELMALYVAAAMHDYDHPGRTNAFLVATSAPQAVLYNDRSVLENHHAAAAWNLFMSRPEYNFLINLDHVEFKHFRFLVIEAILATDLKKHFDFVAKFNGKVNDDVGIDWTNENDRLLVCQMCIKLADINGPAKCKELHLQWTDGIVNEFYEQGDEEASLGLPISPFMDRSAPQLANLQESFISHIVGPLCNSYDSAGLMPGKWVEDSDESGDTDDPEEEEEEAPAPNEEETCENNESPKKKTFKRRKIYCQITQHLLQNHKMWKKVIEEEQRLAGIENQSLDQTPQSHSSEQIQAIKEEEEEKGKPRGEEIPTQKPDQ

PDE1A = molecular target: T3, PDE1A (Homo sapiens, UniProt P54750); assay: Inhibition of PDE1A
T3 construct: Plasmid pBB-PDE1A3/6 contained the complete open reading frame of PDE1A3; made in house; host or cells: Sf9 (baculovirus)

`CCOC(=O)c1c(C)nn(-c2cccc([N+](=O)[O-])c2)c1C` [Example 2, 3,5-dimethyl-1-(3-nitrophenyl)-1H-pyrazole-4-carboxylic acid ethyl ester] was tested, and the IC50 (PDE5) was 25.6 µM, the IC50 (PDE3A) was 137 µM and the IC50 (PDE1A) was 25.1 µM.
